Source: ChEMBL document CHEMBL5608246, “Membrane-Targeting Amphiphilic Honokiol Derivatives Containing an Oxazole Moiety as Potential Antibacterials against Methicillin-Resistant Staphylococcus aureus” (J Med Chem, 2024)
The source made the active and inactive calls. The calls are words filed in the database; no cut-off is given here.

Experiments:
Cell membrane = assay: Induction of membrane permeability in methicillin resistant Staphylococcus aureus 20 at 32 ug/ml measured at 2 mins interval over 20 mins by SYTOX green staining based assay; settings: dose 32.0 µg/ml
Staphylococcus aureus [1] = assay: Antibacterial activity against Staphylococcus aureus ATCC 29213 incubated for 16 to 18 hrs by broth dilution method; format: functional; settings: time 16-18 hrs
Staphylococcus aureus [2] = assay: Antibacterial activity against methicillin resistant Staphylococcus aureus N315 incubated for 16 to 18 hrs by broth dilution method; format: functional; settings: time 16-18 hrs
Staphylococcus aureus [3] = assay: Antibacterial activity against methicillin resistant Staphylococcus aureus M11 incubated for 16 to 18 hrs by broth dilution method; format: functional; settings: time 16-18 hrs
Staphylococcus aureus [4] = assay: Antibacterial activity against methicillin resistant Staphylococcus aureus M12 incubated for 16 to 18 hrs by broth dilution method; format: functional; settings: time 16-18 hrs
Staphylococcus aureus [5] = assay: Antibacterial activity against methicillin resistant Staphylococcus aureus M13 incubated for 16 to 18 hrs by broth dilution method; format: functional; settings: time 16-18 hrs
Staphylococcus aureus [6] = assay: Antibacterial activity against methicillin resistant Staphylococcus aureus M14 incubated for 16 to 18 hrs by broth dilution method; format: functional; settings: time 16-18 hrs
Staphylococcus aureus [7] = assay: Antibacterial activity against methicillin resistant Staphylococcus aureus M16 incubated for 16 to 18 hrs by broth dilution method; format: functional; settings: time 16-18 hrs
Staphylococcus aureus [8] = assay: Antibacterial activity against methicillin resistant Staphylococcus aureus M17 incubated for 16 to 18 hrs by broth dilution method; format: functional; settings: time 16-18 hrs
Staphylococcus aureus [9] = assay: Antibacterial activity against methicillin resistant Staphylococcus aureus M20 incubated for 16 to 18 hrs by broth dilution method; format: functional; settings: time 16-18 hrs
Staphylococcus aureus [10] = assay: Antibacterial activity against methicillin resistant Staphylococcus aureus M21 incubated for 16 to 18 hrs by broth dilution method; format: functional; settings: time 16-18 hrs
Staphylococcus aureus [11] = assay: Antibacterial activity against methicillin resistant Staphylococcus aureus M22 incubated for 16 to 18 hrs by broth dilution method; format: functional; settings: time 16-18 hrs
Staphylococcus aureus [12] = assay: Antibacterial activity against methicillin resistant Staphylococcus aureus M23 incubated for 16 to 18 hrs by broth dilution method; format: functional; settings: time 16-18 hrs
Escherichia coli = assay: Antibacterial activity against Escherichia coli ATCC 25922 incubated for 16 to 18 hrs by broth dilution method; format: functional; settings: time 16-18 hrs
[13] = Hemolytic activity in sheep RBC incubated for 1 hr; format: toxicity, cell-based, Ovis aries, Erythrocyte; settings: sheep red blood cells (erythrocytes)
[14] = Selectivity index, ratio of HC50 for sheep RBC to MIC for Staphylococcus aureus ATCC 29213; format: toxicity; settings: sheep red blood cells, read-out: Selectivity Index

CC[C@H](C)[C@H](NC(=O)CN)C(=O)NCC(=O)N[C@@H](C)C(=O)N[C@H](C(=O)N[C@@H](CC(C)C)C(=O)N[C@@H](CCCCN)C(=O)N[C@H](C(=O)N[C@@H](CC(C)C)C(=O)N[C@H](C(=O)N[C@H](C(=O)NCC(=O)N[C@@H](CC(C)C)C(=O)N1CCC[C@H]1C(=O)N[C@@H](C)C(=O)N[C@@H](CC(C)C)C(=O)N[C@H](C(=O)N[C@@H](CO)C(=O)N[C@@H](Cc1c[nH]c2ccccc12)C(=O)N[C@H](C(=O)N[C@@H](CCCCN)C(=O)N[C@@H](CCCNC(=N)N)C(=O)N[C@@H](CCCCN)C(=O)N[C@@H](CCCNC(=N)N)C(=O)N[C@@H](CCC(N)=O)C(=O)N[C@@H](CCC(N)=O)C(N)=O)[C@@H](C)CC)[C@@H](C)CC)[C@@H](C)O)[C@@H](C)O)C(C)C)C(C)C
Activity (Cell membrane): Active

C=CCc1cc(-c2ccc(OCCC[N+](C)(C)CC(=O)NCCCC)c(CC=C)c2)c2oc(-c3ccc(Cl)c(Cl)c3)nc2c1.[Br-]
MIC (Staphylococcus aureus [1]): 128 µg/mL | MIC (Staphylococcus aureus [2]): 128 µg/mL | MIC (Staphylococcus aureus [3]): 64 µg/mL | MIC (Staphylococcus aureus [4]): 32 µg/mL | MIC (Staphylococcus aureus [5]): 16 µg/mL | MIC (Staphylococcus aureus [6]): 32 µg/mL | MIC (Staphylococcus aureus [7]): 32 µg/mL | MIC (Staphylococcus aureus [8]): 128 µg/mL | MIC (Staphylococcus aureus [9]): 32 µg/mL | MIC (Staphylococcus aureus [10]): 32 µg/mL | MIC (Staphylococcus aureus [11]): 64 µg/mL | MIC (Staphylococcus aureus [12]): 64 µg/mL | MIC (Escherichia coli): > 128 µg/mL | HC50 at 1 h [13]: 87.6 µg/mL | selectivity ratio [14]: 0.7

C=CCc1cc(-c2ccc(OCCC[N+](C)(C)CC(=O)NCCCC)c(CC=C)c2)c2oc(-c3ccc(F)c(F)c3)nc2c1.[Br-]
MIC (Staphylococcus aureus [1]): 8 µg/mL | MIC (Staphylococcus aureus [2]): 32 µg/mL | MIC (Staphylococcus aureus [3]): 8 µg/mL | MIC (Staphylococcus aureus [4]): 8 µg/mL | MIC (Staphylococcus aureus [5]): 4 µg/mL | MIC (Staphylococcus aureus [6]): 4 µg/mL | MIC (Staphylococcus aureus [7]): 4 µg/mL | MIC (Staphylococcus aureus [8]): 4 µg/mL | MIC (Staphylococcus aureus [9]): 4 µg/mL | MIC (Staphylococcus aureus [10]): 4 µg/mL | MIC (Staphylococcus aureus [11]): 16 µg/mL | MIC (Staphylococcus aureus [12]): 4 µg/mL | MIC (Escherichia coli): > 128 µg/mL | HC50 at 1 h [13]: 222 µg/mL | selectivity ratio [14]: 27.7

C=CCc1cc(-c2ccc(OCCC[N+](C)(C)CC(=O)NCCCC)c(CC=C)c2)c2oc(-c3ccc(F)c(Cl)c3)nc2c1.[Br-]
MIC (Staphylococcus aureus [1]): 64 µg/mL | MIC (Staphylococcus aureus [2]): 16 µg/mL | MIC (Staphylococcus aureus [3]): 8 µg/mL | MIC (Staphylococcus aureus [4]): 8 µg/mL | MIC (Staphylococcus aureus [5]): 8 µg/mL | MIC (Staphylococcus aureus [6]): 4 µg/mL | MIC (Staphylococcus aureus [7]): 8 µg/mL | MIC (Staphylococcus aureus [8]): 32 µg/mL | MIC (Staphylococcus aureus [9]): 8 µg/mL | MIC (Staphylococcus aureus [10]): 8 µg/mL | MIC (Staphylococcus aureus [11]): 16 µg/mL | MIC (Staphylococcus aureus [12]): 8 µg/mL | MIC (Escherichia coli): > 128 µg/mL | HC50 at 1 h [13]: > 320 µg/mL | selectivity ratio [14]: > 5

C=CCc1cc(-c2ccc(OCCC[N+](C)(C)CC(=O)NCCCC)c(CC=C)c2)c2oc(-c3ccc(F)cc3Cl)nc2c1.[Br-]
MIC (Staphylococcus aureus [1]): 8 µg/mL | MIC (Staphylococcus aureus [2]): 8 µg/mL | MIC (Staphylococcus aureus [3]): 4 µg/mL | MIC (Staphylococcus aureus [4]): 4 µg/mL | MIC (Staphylococcus aureus [5]): 4 µg/mL | MIC (Staphylococcus aureus [6]): 4 µg/mL | MIC (Staphylococcus aureus [7]): 4 µg/mL | MIC (Staphylococcus aureus [8]): 4 µg/mL | MIC (Staphylococcus aureus [9]): 4 µg/mL | MIC (Staphylococcus aureus [10]): 4 µg/mL | MIC (Staphylococcus aureus [11]): 4 µg/mL | MIC (Staphylococcus aureus [12]): 4 µg/mL | MIC (Escherichia coli): > 128 µg/mL | HC50 at 1 h [13]: 219 µg/mL | selectivity ratio [14]: 27.3

C=CCc1cc(-c2ccc(OCCC[N+](C)(C)CC(=O)NCCCC)c(CC=C)c2)c2oc(-c3ccccc3F)nc2c1.[Br-]
MIC (Staphylococcus aureus [1]): 4 µg/mL | MIC (Staphylococcus aureus [2]): 8 µg/mL | MIC (Staphylococcus aureus [3]): 4 µg/mL | MIC (Staphylococcus aureus [4]): 4 µg/mL | MIC (Staphylococcus aureus [5]): 4 µg/mL | MIC (Staphylococcus aureus [6]): 4 µg/mL | MIC (Staphylococcus aureus [7]): 4 µg/mL | MIC (Staphylococcus aureus [8]): 4 µg/mL | MIC (Staphylococcus aureus [9]): 4 µg/mL | MIC (Staphylococcus aureus [10]): 8 µg/mL | MIC (Staphylococcus aureus [11]): 4 µg/mL | MIC (Staphylococcus aureus [12]): 4 µg/mL | MIC (Escherichia coli): 128 µg/mL | HC50 at 1 h [13]: 110 µg/mL | selectivity ratio [14]: 27.4

C=CCc1cc(-c2ccc(OCCC[N+](C)(C)CC(=O)NCCCC)c(CC=C)c2)c2oc(-c3cc(F)c(F)c(F)c3)nc2c1.[Br-]
MIC (Staphylococcus aureus [1]): > 128 µg/mL | MIC (Staphylococcus aureus [2]): 64 µg/mL | MIC (Staphylococcus aureus [3]): 32 µg/mL | MIC (Staphylococcus aureus [4]): 128 µg/mL | MIC (Staphylococcus aureus [5]): 32 µg/mL | MIC (Staphylococcus aureus [6]): 32 µg/mL | MIC (Staphylococcus aureus [7]): 32 µg/mL | MIC (Staphylococcus aureus [8]): 64 µg/mL | MIC (Staphylococcus aureus [9]): 64 µg/mL | MIC (Staphylococcus aureus [10]): 32 µg/mL | MIC (Staphylococcus aureus [11]): 64 µg/mL | MIC (Staphylococcus aureus [12]): 32 µg/mL | MIC (Escherichia coli): > 128 µg/mL | HC50 at 1 h [13]: 64.4 µg/mL | selectivity ratio [14]: < 0.5

C=CCc1cc(-c2ccc(OCCC[N+](C)(C)CC(=O)NCCCC)c(CC=C)c2)c2oc(-c3cc(Cl)cc(Cl)c3)nc2c1.[Br-]
MIC (Staphylococcus aureus [1]): 128 µg/mL | MIC (Staphylococcus aureus [2]): 128 µg/mL | MIC (Staphylococcus aureus [3]): > 128 µg/mL | MIC (Staphylococcus aureus [4]): 128 µg/mL | MIC (Staphylococcus aureus [5]): 32 µg/mL | MIC (Staphylococcus aureus [6]): 64 µg/mL | MIC (Staphylococcus aureus [7]): 64 µg/mL | MIC (Staphylococcus aureus [8]): 32 µg/mL | MIC (Staphylococcus aureus [9]): 128 µg/mL | MIC (Staphylococcus aureus [10]): 32 µg/mL | MIC (Staphylococcus aureus [11]): 128 µg/mL | MIC (Staphylococcus aureus [12]): 128 µg/mL | MIC (Escherichia coli): > 128 µg/mL | HC50 at 1 h [13]: 81.3 µg/mL | selectivity ratio [14]: 0.6
